PMC8894927, “Oxylipin signaling in salt-stressed soybean is modulated by ligand-dependent interaction of Class II acyl-CoA-binding proteins with lipoxygenase” (The Plant Cell, 2021)
“And” between values parts separate entries of the source, which are not always exact repeats. Identical values can stand only once.

T1: VLXB:StrepII (soybean, UniProt A0A0R0G554 1-853)
T1 sequence (looked up): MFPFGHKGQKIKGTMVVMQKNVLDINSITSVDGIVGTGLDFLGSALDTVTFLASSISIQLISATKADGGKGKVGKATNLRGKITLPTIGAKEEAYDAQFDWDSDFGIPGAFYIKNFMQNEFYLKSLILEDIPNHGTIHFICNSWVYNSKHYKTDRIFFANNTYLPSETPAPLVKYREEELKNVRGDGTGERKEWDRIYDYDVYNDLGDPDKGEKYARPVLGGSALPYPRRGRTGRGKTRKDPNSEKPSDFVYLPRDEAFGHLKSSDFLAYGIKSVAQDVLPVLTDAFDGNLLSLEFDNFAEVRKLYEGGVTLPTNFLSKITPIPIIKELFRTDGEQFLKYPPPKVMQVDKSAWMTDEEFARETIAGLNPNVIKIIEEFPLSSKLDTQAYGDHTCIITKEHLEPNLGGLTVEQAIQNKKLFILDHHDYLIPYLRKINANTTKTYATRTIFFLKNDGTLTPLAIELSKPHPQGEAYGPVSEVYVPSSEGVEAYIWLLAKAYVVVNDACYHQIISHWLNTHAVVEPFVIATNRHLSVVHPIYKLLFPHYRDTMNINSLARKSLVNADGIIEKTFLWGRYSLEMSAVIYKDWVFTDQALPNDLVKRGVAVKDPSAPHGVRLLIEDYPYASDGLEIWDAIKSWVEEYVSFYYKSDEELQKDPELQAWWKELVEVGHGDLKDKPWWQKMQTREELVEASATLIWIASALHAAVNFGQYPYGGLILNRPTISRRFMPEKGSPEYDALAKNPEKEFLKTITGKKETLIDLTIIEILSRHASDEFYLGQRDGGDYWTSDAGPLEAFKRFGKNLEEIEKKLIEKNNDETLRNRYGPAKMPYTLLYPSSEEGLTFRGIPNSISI

T2: GmPLDα1:StrepII (soybean, UniProt I1KH24 1-809)
T2 construct: GmPLDα1, soybean phospholipase Dα1 (Glyma.07G031100), ORF; In pRSETA (pGM1032); the methods call these proteins (His)6/StrepII-tagged; also called soybean PHOSPHOLIPASE Dα1; source: E. coli, purified (HisTrap HP, Strep-Tactin XT); not shown: StrepII, C-terminal, kept
T2 sequence (looked up): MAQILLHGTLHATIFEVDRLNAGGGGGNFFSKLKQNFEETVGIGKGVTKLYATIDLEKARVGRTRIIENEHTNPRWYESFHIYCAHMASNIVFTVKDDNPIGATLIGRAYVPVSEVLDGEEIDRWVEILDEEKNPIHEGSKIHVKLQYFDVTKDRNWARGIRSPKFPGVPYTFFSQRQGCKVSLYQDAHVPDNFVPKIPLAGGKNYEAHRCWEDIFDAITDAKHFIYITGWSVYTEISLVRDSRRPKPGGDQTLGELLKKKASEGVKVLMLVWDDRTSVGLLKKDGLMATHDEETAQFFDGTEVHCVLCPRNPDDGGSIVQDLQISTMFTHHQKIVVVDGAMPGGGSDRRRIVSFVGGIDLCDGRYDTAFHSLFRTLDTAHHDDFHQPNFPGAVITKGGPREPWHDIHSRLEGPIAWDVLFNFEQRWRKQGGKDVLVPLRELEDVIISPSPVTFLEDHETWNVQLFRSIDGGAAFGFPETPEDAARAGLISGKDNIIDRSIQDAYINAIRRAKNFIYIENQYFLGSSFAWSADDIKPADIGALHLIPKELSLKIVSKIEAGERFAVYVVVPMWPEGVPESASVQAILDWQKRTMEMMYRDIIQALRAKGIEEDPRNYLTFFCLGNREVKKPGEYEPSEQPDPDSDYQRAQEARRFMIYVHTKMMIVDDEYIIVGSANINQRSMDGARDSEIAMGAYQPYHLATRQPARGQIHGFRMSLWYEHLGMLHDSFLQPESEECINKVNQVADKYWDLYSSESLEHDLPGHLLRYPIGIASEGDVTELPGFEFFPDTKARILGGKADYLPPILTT


What was measured:
[1] = tested on: GmACBP4.1_33–354 interaction with VLXB:StrepII; test: Strep-Tactin pull-down assay with supplemented acyl-CoAs; type: binding, soybean
(His)6-GmACBP4.1_33–354 [2] = test: Isothermal titration calorimetry of acyl-CoA binding (WT protein); parameters: species or system soybean; conditions: ITC at 25°C; 15 μM protein titrated with 200 μM acyl-CoA; mean ± SD, three experiments; read-out: KD, dissociation constant
Description: ITC was conducted with a MicroCal iTC200 system (GE Healthcare) at 25°C in 10 mM sodium phosphate (pH 7) by 20 injections of 1.8-μL acyl-CoAs (200 μM; Avanti Polar Lipids Inc., Alabaster, AL, USA) into the sample cell with 15 μM purified (His)6-GmACBP4.1. Each injection lasted 4 s at 150-s intervals with a stirring speed of 1,000 rpm. Nonspecific heat effects were estimated and corrected after saturation. The baseline was adjusted, and the data were fitted into a single-site binding model using the Origin version 7.0 software (OriginLab).
Supplemental Table 1. Binding constants and thermodynamic parameters for (His)6-GmACBP4.133–354 interaction with acyl-CoAs. (Supports Figure 5A) […]
Isothermal titration calorimetry analysis was performed by titration of 250 μL of 15 μM (His)6-GmACBP4.133–354 with […]
from three independent experiments. n, stoichiometry (number of ligand sites per protein); KD, dissociation constant; ∆H, enthalpy change; −T∆S, entropy change; ∆G, Gibbs free energy.

[3] = tested on: GmACBP4.1_33–354 interaction with GmPLDα1:StrepII; test: Strep-Tactin pull-down assay with supplemented acyl-CoAs; type: binding, soybean; conditions: acyl-CoA 12.5–100 μM, versus control without acyl-CoA
Source text: Figure 6 Specific acyl-CoA species facilitate GmACBP4 interaction with VLXB and GmPLDα1. A, Strep-Tactin pull-down assays. […] (His)6-GmACBP4.1_33–354 were detected in eluates by immunoblotting using anti-ACBP3 antibodies. […] Input lanes represent 1% protein. Arrowheads indicate target bands of 40-kD (His)6-GmACBP4.1_33–354 (apparent: 50 kD). The bound protein fraction was quantified densitometrically. […] B–C, Strep-Tactin pull-down assays with supplemented acyl-CoAs. […] Input lanes represent 5% proteins in (B) or 10% proteins in (C). Arrowheads indicate target bands of 40-kD (His)6-GmACBP4.1_33–354 (apparent: 50kD).
Strep-Tactin pull-down assays were performed using Strep-Tactin XT resins (IBA) following the manufacturer’s instructions. Briefly, 5 μL of resins with/without prebound VLXB:StrepII or GmPLDα1:StrepII (0.5 μM) were agitated with GmACBP4.1_33–354 (0.5 μM) and acyl-CoAs (0, 12.5, 25, 50, and 100 μM) in Buffer W containing 0.1 M Tris–HCl (pH 7), 0.15 M NaCl, 1 mM EDTA and 0.05% (w/v) Triton X-100 at 4°C for 2 h. After three washes in Buffer W, bound proteins were eluted in Buffer W with 50 mM biotin, and analyzed by immunoblotting using anti-ACBP3.1 antibodies.

AtACBP1 = target: AtACBP1; parameters: method as in Xue et al., 2014; conditions: ref Xue et al., 2014; cited from earlier work
(His)6-GmACBP4.1_33–354 [4] = test: Liposome association assay for PA binding; parameters: species or system soybean; conditions: PA:di-16:0-PC liposomes, 0–100% (w/w) PA
(His)6-GmACBP4.1_33–354 [5] = test: Protein–lipid overlay assay; type: binding, soybean; conditions: commercial strips and PA-spotted nitrocellulose strips; 0.5 μg mL−1 protein
VLXB:StrepII [6] = target: T1, VLXB:StrepII; test: cell-based or functional assay
GmPLDα1:StrepII = target: T2, GmPLDα1:StrepII; test: pull-down; Strep-Tactin XT resins with prebound VLXB:StrepII or GmPLDα1:StrepII (0.5 μM) agitated with (His)6-GmACBP4.1(33-354) (0.5 μM) and acyl-CoAs (0, 12.5, 25, 50, 100 μM) in 0.1 M Tris-HCl pH 7, 0.15 M NaCl, 1 mM EDTA, 0.05% Triton X-100 at 4°C for 2 h; eluted with 50 mM biotin; immunoblot with anti-ACBP3.1 antibodies; conditions: both partners purified
VLXB:StrepII [7] = target: T1, VLXB:StrepII; test: as above; conditions: both partners purified
[8] = acyl-CoA 12.5–100 μM, versus control without acyl-CoA

| Molecule | Kd ((His)6-GmACBP4.1_33–354 [2]) | increase in WT binding with GmPLDα1:StrepII [3] | descending order of affinity to the WT (liposome association) ((His)6-GmACBP4.1_33–354 [4]) | binding on lipid filter strips ((His)6-GmACBP4.1_33–354 [5]) | also measured |
| --- | --- | --- | --- | --- | --- |
| CCCCCCCCCCCCCCCC(=O)SCCNC(=O)CCNC(=O)[C@H](O)C(C)(C)COP(=O)(O)OP(=O)(O)OC[C@H]1O[C@@H](n2cnc3c(N)ncnc32)[C@H](O)[C@@H]1OP(=O)(O)O [C16:0-CoA] | 800 ± 100 nM | up to nine-fold | – | – | increase in WT binding with VLXB:StrepII [1, 8]: negligible |
| CC/C=C\C/C=C\C/C=C\CCCCCCCC(=O)SCCNC(=O)CCNC(=O)[C@H](O)C(C)(C)COP(=O)(O)OP(=O)(O)OC[C@H]1O[C@@H](n2cnc3c(N)ncnc32)[C@H](O)[C@@H]1OP(=O)(O)O [C18:3-CoA, linolenoyl-CoA] | 1170 nM and 900 to 1200 nM | did not influence | – | – | Kd (AtACBP1): 400 to 800 nM; increase in WT binding with VLXB:StrepII ([1]; 100 µM acyl-CoA): nine-fold |
| CCCCCCCCCCCCCCCCCC(=O)OC[C@H](COP(=O)(O)O)OC(=O)CCCCCCCCCCCCCCCCC [di-18:0-PA] | – | – | di-16:0-PA ≈ di-18:1-PA > di-18:0-PA > di-14:0-PA | lower affinity | – |
| CCCCCCCCC=CCCCCCCCC(=O)OCC(COP(=O)(O)O)OC(=O)CCCCCCCC=CCCCCCCCC (stereo not drawn) [di-18:1-PA] | – | – | di-16:0-PA ≈ di-18:1-PA > di-18:0-PA > di-14:0-PA | – | – |
| CCCCCCCCCCCCCCCC(=O)OC[C@H](COP(=O)([O-])OCC[N+](C)(C)C)OC(=O)CCCCCCCCCCCCCCC [di-16:0-phosphatidylcholine] | – | – | – | did not interact | – |
| CCCCCCCCCCCCCC(=O)OC[C@H](COP(=O)(O)O)OC(=O)CCCCCCCCCCCCC [di-14:0-PA] | – | – | di-16:0-PA ≈ di-18:1-PA > di-18:0-PA > di-14:0-PA | lower affinity | – |
| CCCCCCCC/C=C\CCCCCCCC(=O)SCCNC(=O)CCNC(=O)[C@H](O)C(C)(C)COP(=O)(O)OP(=O)(O)OC[C@H]1O[C@@H](n2cnc3c(N)ncnc32)[C@H](O)[C@@H]1OP(=O)(O)O [C18:1-CoA] | 680 ± 80 nM | up to nine-fold | – | – | increase in WT binding with VLXB:StrepII [1, 8]: negligible |
| (His)6-GmACBP4.1_(33–354) (domain or fragment, UniProt I1KAV2 33-354, looked up, In pRSETA (pGM963); also called WT; recombinant GmACBP4.1 without the TM domain; source: E. coli, purified (HisTrap HP, HiTrap Q HP); not shown: (His)6, N-terminal, kept) DDNLTVTRASAAETTATRAEQFEDALKRDDAVSSDARPFEEESVVAEHGSVRIDSDGDYDDDWEGVESTELDEAFSAATAFVAAAAADRLSQKVSSDVQLQLYGLYKIATEGPCSTPQPSPLKMTARAKWQAWQKLGAMPPEDAMQKYIDIVTEIYPTWLDGSSLRNKSGDSGGHGSEAKGPMGPVFSTFVYEEEYGSDSQMEAIHGFAREGDMANLLKCIENGVSMNLKDSEGRTPLHWAVDRGHLNVTELLVGKNADVNAKDNDGQTPLHYAVTCEREAIAEYLVKHNADIYSKDNDGSSPRDICESNWPCMQHVGEEVN | – | – | – | – | IC50 of in vitro LOX activity of 100 nM VLXB:StrepII after incubation with 0.1-300 nM (His)6-GmACBP4.1(33-354) WT and 10 µM C18:2-CoA (VLXB:StrepII [6]): 8.5 nM; IC50 of in vitro LOX activity of 100 nM VLXB:StrepII after incubation with 0.1-300 nM (His)6-GmACBP4.1(33-354) WT and 10 µM C18:3-CoA (VLXB:StrepII [6]): 5 nM; fold increase of binding with C16:0/C18:1-CoAs against no acyl-CoA (GmPLDα1:StrepII): ≤ 9 fold; fold increase of binding with 100 µM C18:3-CoA against no acyl-CoA (VLXB:StrepII [7]): 9 fold; fold increase of binding with C18:2-CoA against no acyl-CoA (VLXB:StrepII [7]): ≤ 4 fold |
